Data from publication PMC11767077, “Experimental Validation of Antiobesogenic and Osteoprotective Efficacy of Ginsenoside CK via Targeting Lipid and Atherosclerosis Pathways” (Life, 2024).
In brackets after ≈: the same amount, converted by molar mass.

Molecular target: α-glucosidase
Experiment: p-NPG colorimetric enzyme assay, […] nm, commercial α-glucosidase
Type: biochemical

CC(C)=CCC[C@](C)(O[C@@H]1O[C@H](CO)[C@@H](O)[C@H](O)[C@H]1O)[C@H]1CC[C@]2(C)[C@@H]1[C@H](O)C[C@@H]1[C@@]3(C)CC[C@H](O)C(C)(C)[C@@H]3CC[C@]12C [CK, ginsenoside CK]
IC50: 22.83 µg/mL (≈ 36.7 µM)
